Here are results for 25 compounds from PubChem BioAssay AID330 (DTP/NCI, 2004).

Inconclusive results and toxic doses are left out.

The experiment relates to P388 leukemia ip, CD2F1 mice, survival T/C. Kind of experiment: NCI In Vivo Anticancer Drug Screen. Data for tumor model P388 Leukemia (intraperitoneal) in CD2F1 (CDF1) mice. The following applies: endpoint: median survival time, higher = longer survival. The method, boiled down:
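Mice carrying the transplanted tumor received test compound or vehicle. Survival was recorded in each group, and the value is the treated-group measurement divided by that of the vehicle-treated control group.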

Setting [1] is: dose: 50.0 mg/kg/injection, schedule: Q01DX009 (ip), vehicle: saline with Tween-80.
Setting [2] is: dose: 100.0 mg/kg/injection, schedule: Q01DX009 (ip), vehicle: saline with Tween-80.
Setting [3] is: dose: 400.0 mg/kg/injection, schedule: Q01DX009 (ip), vehicle: saline with Tween-80.
[4] abbreviates: dose: 50.0 mg/kg/injection, schedule: Q01DX009 (ip), vehicle: suspension in saline.
Setting [5] is: dose: 100.0 mg/kg/injection, schedule: Q01DX009 (ip), vehicle: suspension in saline.
The mark [6] stands for this setting: dose: 100.0 mg/kg/injection, schedule: Q04DX003 (ip), vehicle: saline with Tween-80.
The mark [7] stands for this setting: dose: 200.0 mg/kg/injection, schedule: Q04DX003 (ip), vehicle: saline with Tween-80.
Where [8] appears, read: dose: 25.0 mg/kg/injection, schedule: Q04DX003 (ip), vehicle: saline with Tween-80.
Setting [9] is: dose: 50.0 mg/kg/injection, schedule: Q04DX003 (ip), vehicle: saline with Tween-80.
[10] abbreviates: dose: 30.0 mg/kg/injection, schedule: Q01DX005 (ip), vehicle: saline with Tween-80.
[11] abbreviates: dose: 60.0 mg/kg/injection, schedule: Q01DX005 (ip), vehicle: saline with Tween-80.
[12] abbreviates: dose: 50.0 mg/kg/injection, schedule: Q01DX009 (ip), vehicle: Klucel (hydroxypropylcellulose) (HPC).
Where [13] appears, read: dose: 100.0 mg/kg/injection, schedule: Q01DX009 (ip), vehicle: Klucel (hydroxypropylcellulose) (HPC).
Where [14] appears, read: dose: 200.0 mg/kg/injection, schedule: Q01DX009 (ip), vehicle: Klucel (hydroxypropylcellulose) (HPC).
The mark [15] stands for this setting: dose: 100.0 mg/kg/injection, schedule: Q04DX003 (ip), vehicle: Klucel (hydroxypropylcellulose) (HPC).
[16] abbreviates: dose: 200.0 mg/kg/injection, schedule: Q04DX003 (ip), vehicle: Klucel (hydroxypropylcellulose) (HPC).
The mark [17] stands for this setting: dose: 400.0 mg/kg/injection, schedule: Q04DX003 (ip), vehicle: Klucel (hydroxypropylcellulose) (HPC).
Where [18] appears, read: dose: 50.0 mg/kg/injection, schedule: Q01DX005 (ip), vehicle: Klucel (hydroxypropylcellulose) (HPC).
Setting [19] is: dose: 100.0 mg/kg/injection, schedule: Q01DX005 (ip), vehicle: Klucel (hydroxypropylcellulose) (HPC).
The mark [20] stands for this setting: dose: 200.0 mg/kg/injection, schedule: Q01DX005 (ip), vehicle: Klucel (hydroxypropylcellulose) (HPC).

As for `Cc1ccc(S(=O)(=O)/C=C/C(=O)c2ccco2)cc1`, the T/C runs as follows: (dose: 100.0 mg/kg/injection, schedule: Q04DX002 (ip), vehicle: saline) 108 % of control; (dose: 200.0 mg/kg/injection, schedule: Q04DX002 (ip), vehicle: saline) 112 % of control; (dose: 400.0 mg/kg/injection, schedule: Q04DX002 (ip), vehicle: saline) 100 % of control.
Consider `O=C(O)/C(=C\c1ccncc1)c1cccc2ccccc12`, for which the T/C is 101 % of control under setting [1]; 101 % of control under setting [2]; 111 % of control (dose: 200.0 mg/kg/injection, schedule: Q01DX009 (ip), vehicle: saline with Tween-80); 98 % of control under setting [3].
Turning to `N#CC(NCC1(O)CCCCC1)C(O)c1ccccc1` (configuration not stated), the T/C is 94 % of control (dose: 25.0 mg/kg/injection, schedule: Q01DX009 (ip), vehicle: suspension in saline); 108 % of control under setting [4]; 109 % of control under setting [5].
`COc1ccc(CCN2COc3ccc4ccc(=O)oc4c3C2)cc1OC`: the T/C under setting [2] was 100 % of control; the T/C under setting [6] is 110 % of control; the T/C under setting [7] was 115 % of control; the T/C under setting [3] is 100 % of control; the T/C (dose: 400.0 mg/kg/injection, schedule: Q04DX003 (ip), vehicle: saline with Tween-80) is 110 % of control.
As for `COc1cc2c(/C=N/NC(N)=S)c(Cl)[nH]c2cc1C`, the T/C is 105 % of control under setting [8]; 107 % of control under setting [9]; 102 % of control (dose: 100.0 mg/kg/injection, schedule: Q01DX001 (ip), vehicle: saline with Tween-80); 90 % of control under setting [6]; 100 % of control (dose: 200.0 mg/kg/injection, schedule: Q01DX001 (ip), vehicle: saline with Tween-80); 98 % of control under setting [7]. Also, for the setting “dose: 400.0 mg/kg/injection, schedule: Q01DX001 (ip), vehicle: saline with Tween-80”, the T/C is 90 % of control.
On to `O=C(CNC(=O)Nc1ccc(Cl)c(Cl)c1)N/N=C/c1cccc(F)c1`, for which the T/C was 89 % of control (dose: 15.0 mg/kg/injection, schedule: Q01DX005 (ip), vehicle: saline with Tween-80); 91 % of control under setting [10]; 89 % of control under setting [11].
On to `CCOC(=O)C(=CNc1cc(C(F)(F)F)ccc1N1CCOCC1)C(=O)OCC`, for which the T/C under setting [12] is 97 % of control, the T/C under setting [13] is 100 % of control and the T/C under setting [14] is 100 % of control.
As for `CC(=O)Nc1ccc(CN2CC(C)N(N)C(C)C2)cc1` (configuration not stated), the T/C is, setting by setting: (dose: 25.0 mg/kg/injection, schedule: Q04DX003 (ip), vehicle: Klucel (hydroxypropylcellulose) (HPC)) 101 % of control; (dose: 50.0 mg/kg/injection, schedule: Q04DX003 (ip), vehicle: Klucel (hydroxypropylcellulose) (HPC)) 98 % of control; under setting [15], 95 % of control; under setting [16], 100 % of control; under setting [17], 104 % of control.
In the case of `Nc1nc(N)nc(CCC(Cl)(Cl)Cl)n1`, the T/C runs as follows: (dose: 12.5 mg/kg/injection, schedule: Q01DX009 (ip), vehicle: distilled water + Tween-80) 100 % of control; (dose: 25.0 mg/kg/injection, schedule: Q01DX009 (ip), vehicle: distilled water + Tween-80) 100 % of control; (dose: 50.0 mg/kg/injection, schedule: Q01DX009 (ip), vehicle: distilled water + Tween-80) 95 % of control; (dose: 100.0 mg/kg/injection, schedule: Q01DX009 (ip), vehicle: distilled water + Tween-80) 95 % of control; (dose: 200.0 mg/kg/injection, schedule: Q01DX009 (ip), vehicle: distilled water + Tween-80) 100 % of control.
As to `COC(=O)c1cc(=O)nc(N/N=C/c2ccccc2O)s1`, the T/C reads like this: under setting [18], 98 % of control; under setting [19], 100 % of control; under setting [20], 108 % of control.
For the compound `CCC1(O)OC(=O)C(C)=C1C` (configuration not stated), the T/C is, setting by setting: (dose: 12.5 mg/kg/injection, schedule: Q04DX003 (ip), vehicle: saline) 98 % of control; (dose: 25.0 mg/kg/injection, schedule: Q04DX003 (ip), vehicle: saline) 95 % of control; (dose: 50.0 mg/kg/injection, schedule: Q04DX003 (ip), vehicle: saline) 99 % of control.
As to `CCCCCCCCC(C(=O)c1ccccc1)=C(C(F)(F)F)C(F)(F)F`, the T/C reads like this: under setting [8], 100 % of control; under setting [9], 95 % of control; under setting [6], 104 % of control.
Consider `COc1cc(CC2C(Cc3ccc4c(c3)OCO4)COC2CO)cc(OC)c1OC` (configuration not stated), for which the T/C is, setting by setting: (dose: 6.25 mg/kg/injection, schedule: Q04DX002 (ip), vehicle: acetone) 95 % of control; (dose: 12.5 mg/kg/injection, schedule: Q04DX002 (ip), vehicle: acetone) 102 % of control; (dose: 25.0 mg/kg/injection, schedule: Q04DX002 (ip), vehicle: acetone) 98 % of control.
For `Cc1nc2nnc(N)n2nc1C`, the T/C under setting [15] was 106 % of control, the T/C under setting [16] was 97 % of control and the T/C under setting [17] is 96 % of control.
For `O=C1OC(=O)C2C1C1c3ccccc3C2(O)c2ccccc21` (configuration not stated), the T/C is, setting by setting: under setting [10], 106 % of control; under setting [11], 100 % of control; (dose: 120.0 mg/kg/injection, schedule: Q01DX005 (ip), vehicle: saline with Tween-80) 94 % of control.
In the case of `COc1ccc(CSC(=S)Nc2ccc(Cl)c(C)c2)cc1`, the T/C reads like this: under setting [4], 111 % of control; under setting [5], 109 % of control; (dose: 200.0 mg/kg/injection, schedule: Q01DX009 (ip), vehicle: suspension in saline) 106 % of control.
With `CCOc1ccc(-c2nc3ccc(-c4nc5ccc(N6CCN(C)CC6)cc5[nH]4)cc3[nH]2)cc1`, the T/C (dose: 3.12 mg/kg/injection, schedule: Q01DX005 (ip), vehicle: water) is 159 % of control.
As to `O=C1C=C(Cl)C(=O)C(c2ccccc2)=C1Cl`, the T/C was 96 % of control (dose: 12.5 mg/kg/injection, schedule: Q01DX005 (ip), vehicle: Klucel (hydroxypropylcellulose) (HPC)) and 91 % of control (dose: 25.0 mg/kg/injection, schedule: Q01DX005 (ip), vehicle: Klucel (hydroxypropylcellulose) (HPC)).
As to `COC(=O)NCP(=S)(CNC(=O)OC)CNC(=O)OC`, the T/C is 105 % of control under setting [12], 96 % of control under setting [13] and 95 % of control under setting [14].
`COc1ccc(NC(=O)Nc2nc3c(C)cccc3s2)cc1`: the T/C is 101 % of control under setting [18], 98 % of control under setting [19] and 93 % of control under setting [20].
As to `CN(C)c1cccc2c(S(=O)(=O)Cl)cccc12`, the T/C under setting [8] was 106 % of control, the T/C under setting [9] was 114 % of control, the T/C under setting [6] was 110 % of control and the T/C under setting [7] is 124 % of control.
Regarding `COC(=O)Nc1nc2ccc(C(C)(O)c3cccs3)cc2[nH]1` (configuration not stated), the T/C (dose: 25.0 mg/kg/injection, schedule: Q01DX005 (ip), vehicle: saline with Tween-80) was 100 % of control; the T/C (dose: 50.0 mg/kg/injection, schedule: Q01DX005 (ip), vehicle: saline with Tween-80) was 103 % of control; the T/C (dose: 100.0 mg/kg/injection, schedule: Q01DX005 (ip), vehicle: saline with Tween-80) is 103 % of control; the T/C (dose: 200.0 mg/kg/injection, schedule: Q01DX005 (ip), vehicle: saline with Tween-80) was 100 % of control.
With `CC(C)NCC(O)COc1cccc2[nH]c3ccccc3c12` (configuration not stated), the T/C is 99 % of control (dose: 25.0 mg/kg/injection, schedule: Q01DX009 (ip), vehicle: saline with Tween-80) and 96 % of control under setting [1].
In the case of `N#CC1CCCC(C#N)N1Cc1ccccc1` (configuration not stated), the T/C is, setting by setting: (dose: 60.0 mg/kg/injection, schedule: Q01DX005 (ip), vehicle: Klucel (hydroxypropylcellulose) (HPC)) 110 % of control; (dose: 120.0 mg/kg/injection, schedule: Q01DX005 (ip), vehicle: Klucel (hydroxypropylcellulose) (HPC)) 106 % of control.
On to `Cc1c(Cl)c(Cl)nn1C(C)C(=O)N(C)C` (configuration not stated), for which the T/C under setting [15] was 95 % of control and the T/C under setting [16] was 95 % of control.
